{"source": "patent US20130102943A1", "about": "“RELOADABLE FINISHES FOR TEXTILES AND FORMULATIONS FOR LOADING SUCH FINISHES” (SCHOELLER TEXTIL AG, priority 2009, published 2013)", "origin": "cited, not measured here", "test_system": "gram-negative and gram-positive bacteria, as well as yeasts and molds"}
{"compound": "CCCCCCCCCCCC(=O)N[C@@H](CCCNC(=N)N)C(=O)OCC.Cl", "note": "[Lauroyl arginate, Ethyl-N-alpha-lauroyl-L-arginate HCl]", "values": [{"measurement": "antimicrobial effectiveness", "result": "effective"}]}
